# System: DNFB-induced allergic contact dermatitis
# Experiment: DNFB-induced contact dermatitis in mice (allergic contact dermatitis model)
# Format: in vivo, mice (NMRI)
# Conditions: ascrolimus applied in the EDR system, 0.1, 0.3, 1.0%, ear homogenates, 24 hours
# Description: Various models can be used in order to determine the effectiveness and bioavailability of active substances as a function of the topical medication used. A suitable pharmacological model within the scope of anti-inflammatory therapy on the skin is represented by the “Irritant contact dermatitis (ICD)” model in mice. In this model, the inflammatory components of eczema are imitated. This inflammatory aspect likewise plays a role in allergic contact dermatitis and atopic dermatitis with the participation of allergen-specific T cells intrinsic to the skin. Therefore, a T-cell-dependent model of allergic contact dermatitis (in reaction to dinitrofluorobenzene, DNFB) can be utilized. Acute and chronic allergic contact dermatitis (ACD) is characterized by a type-1 dominated cytokine profile. Therefore, the ACD model induced by dinitrofluorobenzene (DNFB) was used in order to assess in vivo the activity of the active substance “ascrolimus” (topical immunomodulator). After sensitizing by means of DNFB, edema was produced by subsequent application of the same contact allergens and therefore, a cutaneous infiltration of allergenic T-cells and granulocytes was triggered. The mice (NMRI) were sensitized with 0.5% DNFB on day 0 and day 1. On day 5, the mice were again treated with 0.3% DNFB. […]
substance,measurement,value
ascrolimus,"peroxidase activity as a measure for granulocyte infiltration (delta peroxidase, FIG. 5)",significant concentration-dependent inhibition
